Data set [1] concerns the target T1, Tyrosine-protein kinase SYK (Homo sapiens, UniProt P43405). The data set is described as follows: Inhibition of Syk (unknown origin) using 4 uM peptide assessed as product formation after 60 mins incubation by microfluidic mobility shift assay.
For data set [2], the target named is Tyrosine-protein kinase Lyn (Homo sapiens, UniProt P07948). The data set is described as follows: Inhibition of Lyn (unknown origin).
In data set [3] the target is T2, Tyrosine-protein kinase ZAP-70 (Homo sapiens, UniProt P43403).
T2 sequence (P43403 whole entry): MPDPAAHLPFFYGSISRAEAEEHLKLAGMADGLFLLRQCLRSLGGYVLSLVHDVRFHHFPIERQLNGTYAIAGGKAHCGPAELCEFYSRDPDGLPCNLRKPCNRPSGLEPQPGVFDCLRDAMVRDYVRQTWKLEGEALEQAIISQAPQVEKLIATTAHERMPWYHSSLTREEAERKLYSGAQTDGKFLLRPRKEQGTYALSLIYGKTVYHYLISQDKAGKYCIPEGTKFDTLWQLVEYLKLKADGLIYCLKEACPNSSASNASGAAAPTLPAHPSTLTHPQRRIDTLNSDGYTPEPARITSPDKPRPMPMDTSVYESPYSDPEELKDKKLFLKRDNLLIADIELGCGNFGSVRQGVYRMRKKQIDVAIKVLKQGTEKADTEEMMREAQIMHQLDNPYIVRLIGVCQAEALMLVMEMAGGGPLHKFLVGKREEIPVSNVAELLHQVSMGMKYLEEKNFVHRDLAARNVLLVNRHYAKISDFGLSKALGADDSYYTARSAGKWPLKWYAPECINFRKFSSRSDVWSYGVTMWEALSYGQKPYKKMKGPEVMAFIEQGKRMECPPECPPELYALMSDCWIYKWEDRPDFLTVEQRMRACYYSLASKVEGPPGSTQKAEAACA
As to the kind of experiment: Inhibition of ZAP70 (unknown origin).

The target of data set [4] is Tyrosine-protein kinase JAK2 (Homo sapiens, UniProt O60674). As to the kind of experiment: Inhibition of JAK2 (unknown origin).
Another data set concerns Bone marrow cell. As to the kind of experiment: Inhibition of IL3 dependent proliferation in […] mouse bone marrow cells using [3H]thymidine by liquid scintillation counting. The data set is classed as functional, cell-based.
Data set [5] deals with T1, Tyrosine-protein kinase SYK. The data set is described as follows: Inhibition of Syk in anti IgM-stimulated human Ramos cells assessed as BLNK phosphorylation by cellular assay.
Data set [6] has the same target. The data set is described as follows: Inhibition of Syk in human whole blood assessed as inhibition of P-SLP76 in CD14+ monocytes by flow cytometry. Background: A flow cytometer gives signals particle by particle.
Data set [7] has as its target Voltage-gated inwardly rectifying potassium channel KCNH2 (Homo sapiens, UniProt Q12809). As to the kind of experiment: Inhibition of human ERG by Q-patch assay.
Data set [8] is described as follows: Half life in rat liver microsomes. The data set is classed as ADME. The conditions noted are these: liver microsomes.
In data set [9] the target is T3, Receptor-type tyrosine-protein kinase FLT3 (Homo sapiens, UniProt P36888).
T3 sequence (P36888 whole entry): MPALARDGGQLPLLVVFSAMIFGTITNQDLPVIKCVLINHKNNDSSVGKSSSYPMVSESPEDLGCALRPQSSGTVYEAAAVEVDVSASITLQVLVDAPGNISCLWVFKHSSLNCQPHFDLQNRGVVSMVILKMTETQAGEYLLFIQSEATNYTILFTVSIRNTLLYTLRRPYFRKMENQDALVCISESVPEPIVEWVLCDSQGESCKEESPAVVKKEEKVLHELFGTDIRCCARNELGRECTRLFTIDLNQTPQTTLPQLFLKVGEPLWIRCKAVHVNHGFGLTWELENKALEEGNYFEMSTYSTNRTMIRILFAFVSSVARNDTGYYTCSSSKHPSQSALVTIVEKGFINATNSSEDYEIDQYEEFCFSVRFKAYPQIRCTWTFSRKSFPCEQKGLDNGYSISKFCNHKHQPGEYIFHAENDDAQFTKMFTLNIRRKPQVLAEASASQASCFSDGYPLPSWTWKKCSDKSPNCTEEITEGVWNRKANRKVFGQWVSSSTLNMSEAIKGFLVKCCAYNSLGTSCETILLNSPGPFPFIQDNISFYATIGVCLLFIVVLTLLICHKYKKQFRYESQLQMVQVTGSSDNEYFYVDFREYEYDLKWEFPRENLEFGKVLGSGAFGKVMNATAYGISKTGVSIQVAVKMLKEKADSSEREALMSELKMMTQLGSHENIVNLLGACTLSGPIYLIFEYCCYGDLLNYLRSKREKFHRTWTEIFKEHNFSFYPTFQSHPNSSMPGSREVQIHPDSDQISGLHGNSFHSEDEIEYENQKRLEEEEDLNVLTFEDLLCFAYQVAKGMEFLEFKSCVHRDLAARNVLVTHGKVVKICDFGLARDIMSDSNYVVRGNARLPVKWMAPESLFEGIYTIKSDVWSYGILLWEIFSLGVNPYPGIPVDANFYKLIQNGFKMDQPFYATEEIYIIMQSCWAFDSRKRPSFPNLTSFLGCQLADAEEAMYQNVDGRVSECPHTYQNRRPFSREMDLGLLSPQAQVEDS
As to the kind of experiment: Inhibition of Flt3 (unknown origin).

Data set [10] in a line: Clearance in Wistar rat at 3 mg/kg, iv and 10 mg/kg, po. Format: ADME, organism-based. The conditions noted are these: in vivo.
Data set [11] is described as follows: Volume of distribution at steady state in Wistar rat at 3 mg/kg, iv and 10 mg/kg, po. Particulars: in vivo, read-out: Vdss. Format: ADME, organism-based.
Data set [12] can be described thus: Terminal half life Wistar rat at 3 mg/kg, iv and 10 mg/kg, po. Format: ADME, organism-based. Particulars: in vivo, read-out: beta t1/2 (converted).
The test system of data set [13] is Rattus norvegicus. The data set is described as follows: Dose normalized AUC in Wistar rat at 3 mg/kg, iv. The conditions noted are these: in vivo. Format: ADME, organism-based. The arrangement: dose 3 mg/kg, route intravenous.
Data set [14] deals with Rattus norvegicus. The data set is described as follows: Dose normalized AUC in Wistar rat at 10 mg/kg, po. The data set is classed as ADME, organism-based. Also noted: dose 10 mg/kg, route oral. The conditions noted are these: in vivo.
Data set [15] concerns Rattus norvegicus. As to the kind of experiment: Cmax/dose in Wistar rat at 3 mg/kg, iv and 10 mg/kg, po. The data set is classed as ADME, organism-based. Particulars: in vivo.
Data set [16] is described as follows: Plasma bioavailability in Wistar rat at 3 mg/kg, iv and 10 mg/kg, po. Format: ADME, organism-based.

Sequence of Tyrosine-protein kinase Lyn (P07948 whole entry): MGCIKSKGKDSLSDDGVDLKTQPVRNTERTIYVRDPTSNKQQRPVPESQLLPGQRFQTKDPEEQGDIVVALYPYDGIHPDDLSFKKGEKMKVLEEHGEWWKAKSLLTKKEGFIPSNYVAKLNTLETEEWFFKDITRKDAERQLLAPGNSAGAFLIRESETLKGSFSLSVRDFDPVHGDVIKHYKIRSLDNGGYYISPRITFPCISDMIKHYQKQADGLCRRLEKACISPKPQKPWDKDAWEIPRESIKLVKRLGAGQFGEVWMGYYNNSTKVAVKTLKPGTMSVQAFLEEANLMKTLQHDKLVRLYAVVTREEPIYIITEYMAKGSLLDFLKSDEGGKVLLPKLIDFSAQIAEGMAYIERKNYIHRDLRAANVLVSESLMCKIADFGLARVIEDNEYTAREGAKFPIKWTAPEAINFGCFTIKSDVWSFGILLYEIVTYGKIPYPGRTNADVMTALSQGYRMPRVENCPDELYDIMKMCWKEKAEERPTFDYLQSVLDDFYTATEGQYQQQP
Sequence of Tyrosine-protein kinase JAK2 (O60674 whole entry): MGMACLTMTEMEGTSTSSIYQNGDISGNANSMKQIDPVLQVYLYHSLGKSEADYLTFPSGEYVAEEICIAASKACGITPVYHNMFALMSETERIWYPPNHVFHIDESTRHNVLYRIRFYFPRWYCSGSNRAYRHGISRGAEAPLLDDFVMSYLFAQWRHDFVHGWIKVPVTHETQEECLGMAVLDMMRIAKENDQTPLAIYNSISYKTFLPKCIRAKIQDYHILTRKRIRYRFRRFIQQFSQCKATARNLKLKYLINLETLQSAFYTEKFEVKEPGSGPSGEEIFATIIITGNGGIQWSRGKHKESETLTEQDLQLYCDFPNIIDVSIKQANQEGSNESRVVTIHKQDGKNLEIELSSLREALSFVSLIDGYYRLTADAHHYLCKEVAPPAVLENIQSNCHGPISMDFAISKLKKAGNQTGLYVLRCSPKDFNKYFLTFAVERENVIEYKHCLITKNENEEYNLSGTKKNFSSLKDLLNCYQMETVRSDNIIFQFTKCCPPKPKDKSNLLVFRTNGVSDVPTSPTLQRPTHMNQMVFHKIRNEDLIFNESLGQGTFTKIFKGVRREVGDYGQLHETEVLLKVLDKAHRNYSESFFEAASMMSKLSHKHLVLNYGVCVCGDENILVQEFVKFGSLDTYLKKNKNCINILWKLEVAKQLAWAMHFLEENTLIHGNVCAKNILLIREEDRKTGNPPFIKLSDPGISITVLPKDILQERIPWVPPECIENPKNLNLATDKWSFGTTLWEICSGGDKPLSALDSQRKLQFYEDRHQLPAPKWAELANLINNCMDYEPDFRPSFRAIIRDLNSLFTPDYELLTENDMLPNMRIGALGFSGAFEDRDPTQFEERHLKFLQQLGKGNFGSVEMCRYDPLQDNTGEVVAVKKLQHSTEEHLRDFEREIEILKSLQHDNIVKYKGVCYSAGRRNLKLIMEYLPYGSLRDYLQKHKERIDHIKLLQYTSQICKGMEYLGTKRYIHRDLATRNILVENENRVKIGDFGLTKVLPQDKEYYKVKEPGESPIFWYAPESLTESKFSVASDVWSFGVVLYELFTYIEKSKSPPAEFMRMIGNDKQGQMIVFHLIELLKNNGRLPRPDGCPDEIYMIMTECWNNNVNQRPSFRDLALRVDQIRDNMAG
Sequence of Voltage-gated inwardly rectifying potassium channel KCNH2 (Q12809 whole entry): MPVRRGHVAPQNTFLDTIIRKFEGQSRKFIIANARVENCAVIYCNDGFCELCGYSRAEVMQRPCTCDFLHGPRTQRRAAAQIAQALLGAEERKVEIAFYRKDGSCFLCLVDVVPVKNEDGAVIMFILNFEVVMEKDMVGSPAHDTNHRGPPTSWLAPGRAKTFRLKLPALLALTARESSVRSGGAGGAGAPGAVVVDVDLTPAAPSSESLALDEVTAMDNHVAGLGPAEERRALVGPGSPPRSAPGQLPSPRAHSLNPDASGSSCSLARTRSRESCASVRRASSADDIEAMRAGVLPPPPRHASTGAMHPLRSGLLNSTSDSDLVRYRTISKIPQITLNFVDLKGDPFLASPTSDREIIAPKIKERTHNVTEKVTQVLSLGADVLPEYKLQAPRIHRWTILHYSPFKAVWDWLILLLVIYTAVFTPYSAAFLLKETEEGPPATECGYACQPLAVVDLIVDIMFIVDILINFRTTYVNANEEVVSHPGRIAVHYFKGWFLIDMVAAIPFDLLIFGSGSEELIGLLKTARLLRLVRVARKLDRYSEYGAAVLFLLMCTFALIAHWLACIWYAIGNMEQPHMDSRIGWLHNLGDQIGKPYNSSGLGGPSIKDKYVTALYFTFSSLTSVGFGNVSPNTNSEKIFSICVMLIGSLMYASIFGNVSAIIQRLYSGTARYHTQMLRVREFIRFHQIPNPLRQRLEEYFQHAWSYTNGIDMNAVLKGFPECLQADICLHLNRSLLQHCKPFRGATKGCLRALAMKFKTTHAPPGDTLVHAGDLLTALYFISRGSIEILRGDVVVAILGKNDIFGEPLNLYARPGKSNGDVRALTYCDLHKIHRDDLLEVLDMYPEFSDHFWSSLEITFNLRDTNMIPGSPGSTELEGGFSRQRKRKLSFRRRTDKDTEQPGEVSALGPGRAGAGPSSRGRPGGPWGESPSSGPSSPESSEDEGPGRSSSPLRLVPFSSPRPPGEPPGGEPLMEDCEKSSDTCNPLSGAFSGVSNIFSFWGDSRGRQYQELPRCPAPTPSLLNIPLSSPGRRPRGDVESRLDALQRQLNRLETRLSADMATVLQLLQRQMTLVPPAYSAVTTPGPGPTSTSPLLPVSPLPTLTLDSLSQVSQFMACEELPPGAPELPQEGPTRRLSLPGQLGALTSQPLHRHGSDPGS

`N[C@H]1COCC[C@H]1Nc1cc2cc[nH]c(=O)c2c(Nc2cccc3cc[nH]c23)n1`: the IC50 – broadly, the concentration that inhibits the measured activity by half – in data set [1] was 22 nM; in data set [2], 1200 nM; in data set [3] it was 340 nM; in data set [4] it was 680 nM; in the data set on Bone marrow cell, 3.51 µM; in [5], 55 nM. Further, the IC50 stood at 433 nM in data set [6], 24.9 µM in data set [7] and 20 nM in data set [9]. For the same compound, the results for the half-life in data set [8] and in data set [12] were 50 min and 126 min, respectively. The same compound gave a clearance in data set [10] of 142 mL/min/kg. Moreover, the Vd in [11] amounted to 18 L/kg. Moreover, the figures for the AUC/dose in the data set with Rattus norvegicus [13] and in the data set on Rattus norvegicus [14] were 299 nM·h and 19 nM·h, respectively. The same compound displayed a Cmax/dose in the data set with Rattus norvegicus [15] of 2 nM. In data set [16], the bioavailability – broadly, the share of a dose that reaches the circulation, judged against a reference dose that is usually intravenous – came to 7%.

The values above are taken from ChEMBL document CHEMBL3259804, “Syk inhibitors with high potency in presence of blood” (Bioorg Med Chem Lett, 2014).
